Data published in article PMC8466728, “DNA Intercalators Inhibit Eukaryotic Ribosomal RNA Synthesis by Impairing the Initiation of Transcription” (Genes, 2021).
Where two headings read alike, the source gives them in different places. Starred links: 1 amine or outer side, 2 acyl side, 3 side chain; linkers in the order of their positions; H or OH if unused. Positions of bridges follow the written chain, without caps; N, C: chain ends. Non-standard residues stand in square brackets, D forms with d. Residues, ends and D or L forms follow the SMILES beside them. Chains are numbered I, II in the order given. Actinocin(9to1) = Cc1c2oc3c(C)ccc(C(=O)[*:1])c3nc-2c(C(=O)[*:2])c(N)c1=O; NMeV = CN[C@H](C(=O)O)C(C)C; Sar = CNCC(=O)O

Columns and labels:
[1] = system: Pol-II transcription in HCT116 p53+/+ cells; test: Pol-II transcripts (18 house-keeping genes) by qPCR in cells expressing wt p53; type: cell-based, human; conditions: cells expressing wt p53, 30 min; concentrations as Figure S2
Experimental: (§1) Cells were grown until 70% confluent and then treated with compounds for 30 min. The following concentrations were used: ActD: AD1–3 nM; AD2–3 µM; Camptothecin (CPT): 8 µM; ethidium bromide (EB): 40 µM; crystal violet (CV): 20 µM; Pro: 2 µM; CX5461: 5 µM. RNA was purified using the RNeasy purification kit (Qiagen) following the manufacturer’s instructions and the RNA concentration was determined spectroscopically. A total 1 µg of RNA was converted to cDNA using the High Capacity RNA-to-cDNA reverse transcriptase kit (Applied Biosystems, Waltham, MA, USA). Then 47/45S pre-rRNA levels were analyzed on the LighCycler 480 thermocycler (Roche) using primers and conditions described previously.
(§2) Pol-II and Pol-III transcripts were analyzed as described previously. All signals were normalized to 18S rRNA level. The standard deviation was calculated from three independent experiments.
(§3) As a complimentary approach we also measured the effect of intercalators and grove binders on transcription by Pol-II and Pol-III by determining relative expression levels of 18 house-keeping genes (the Human Housekeeper reference gene plate, Roche) and of three Pol-III dependent genes in intercalator treated and untreated HCT116 p53^−/− and p53^+/+ cells as described previously.
Figure S2. […] Total RNA was isolated, reverse transcribed and analysed by qPCR. […]

[2] = system: nascent RNA synthesis in HCT116 p53−/− cells; test: Nascent RNA detection in cells by 5EU incorporation (click labelling, confocal microscopy); type: cell-based, human; conditions: 30 min treatment then 1 h 5EU
Experimental: Cells were grown until 50–60% confluent on sterilized glass slides (Superfrost® Plus microscope slides, Menzel-Glaser) and then were treated with compounds or vehicle (as indicated) for 30 min, followed by the addition of 5EU (5-Ethynyl-uridine, 1 mM final concentration) and further incubation for 1 h. The following concentrations were used: Actinomycin D (ActD): 3 µM; ethidium bromide (EB): 40 µM; proflavine (Pro): 2 µM; CX5461: 5 µM.
Cells were fixed with 3.7% paraformaldehyde and permeabilized with 0.5% Triton X-100 in PBS. Nascent RNA was fluorescently labelled using Click-IT® Cell Reaction Buffer Kit (Invitrogen, Waltham, MA, USA) supplemented with Cy5 Azide (Sigma Aldrich) according to manufacturer’s instruction. Nuclei were stained with Hoechst 33342 and images were acquired with a Leica TCS SP5 confocal microscope equipped with an x63 oil-filled objective. Leica Application Suite X (LAS X) software was used for quantification of 5EU incorporation. Box-and-whisker plots of quantification of 5EU incorporation were obtained with Excel. They show the median, the 25% and 75% quantiles, as well as outliers.
Although we see no significant effect of the intercalators and grove-binders on specific Pol-II transcription in vitro we performed experiments aiming to explore effect of these compounds on general level of Pol-II/III transcription in cells. To this end we used two approaches. Firstly, we measure the level of nascent RNA synthesis in […] p53^−/− cells treated with proflavine, ethidium bromide, CX-5461 (specific inhibitor of Pol-I transcription) at concentrations sufficient to inhibit about 90% of Pol-I transcription as shown in Figure 5A. As a control we used high concentration of ActD (3µM) that inhibits activity of all […] polymerases. Cells were treated with the selected compounds or a vehicle for 30 min and then 5EU (5-Ethynyl-uridine) was added and incubation was continued for another hour. During this time, 5EU is incorporated into any newly synthesized RNA, and the level of incorporation can later be assessed using a combination of “click” approach and confocal microscopy.

[3] = system: Pol II/III transcription in HCT116 p53−/− cells; test: Pol-II (18 house-keeping genes) and Pol-III transcripts by qPCR in p53 null cells; type: cell-based, human; conditions: 30 min
Experimental: as §1, §2, §3

[4] = system: Pol-I transcription (rRNA synthesis) in HCT116 p53−/− cells; test: IC50 of Pol-I transcription (rRNA synthesis) in cells; type: cell-based, human; conditions: Homo sapiens
Experimental: as §1
Next, we determined IC50 concentrations for EtBr, Pro, CPT, DAPI and CV in cells by measuring the level of Pol-I transcription at various compound concentrations (Table 2). For this assay we used the HCT116 p53^−/− cell line to avoid any effect of p53 dependent repression of Pol-I transcription.

[5] = system: Pol-I specific transcription; test: Pol-I specific transcription in vitro with or without Top 1 (purified GTFs or HeLa NE; immobilized linear or supercoiled template); type: biochemical, human; conditions: GTFs lacking Top 1 + immobilized linear template, HeLa NE + supercoiled plasmid
Experimental: (§4) Specific Pol I driven transcription reactions were performed as described using 200 ng of supercoiled plasmid DNA or immobilized rDNA promoter. Reactions were supplemented with 1 µL HeLa nuclear extract or with highly purified general transcription factors (GTF: 2 µL SL1, 2.5 µL Pol-I and 0.1 µL UBF). S1 nuclease protection was performed as described with a 60 bp ^32P-5′-end labelled oligonucleotide containing a sequence identical to the region between −20 and +40 of the template strand in the human rRNA gene promoter. […] The standard deviations were calculated from three independent experiments.

[6] = system: Pol-I transcription (47/45S pre-rRNA) in HCT116 p53−/− cells; test: 47/45S pre-rRNA level in cells by qPCR; type: cell-based, human; conditions: 30 min, CPT 8 µM, EB 40 µM, CV 20 µM, Pro 2 µM, CX5461 5 µM (Figure 5A)
Experimental: as §1, §2

[7] = system: UBF occupancy at the rDNA, HCT116 p53−/− cells; test: ChIP of the rDNA repeat: UBF occupancy; type: cell-based, human; conditions: 30 min at IC50 in cells: EB 9.16 µM; CV 5 µM; Pro 0.5 µM
Experimental: ChIP assays were carried out as described previously. In brief, cells were grown until 70% confluent, then treated with compounds for 30 min. The following concentrations were used: ethidium bromide (EB)—9.16 µM; crystal violet (CV)—5 µM; proflavine (Pro)—0.5 µM. Cells were cross-linked with formaldehyde (final concentration 1%) for 10 min, and the cross-linking stopped by the addition of glycine (final concentration 0.125 M) for 5 min. Cross-linked chromatin was sheared using a Biorupter (Diagenode, Liege, Belgium) until 300-base pair average size. Immunoprecipitation was carried out using chromatin isolated from 1 × 10^6 cells, antibodies listed in Supplementary Table S2 and 30 μL of Protein A/Protein G magnetic beads (Invitrogen). Purified immunoprecipitated DNA was analyzed by two tetraplex quantitative PCR panels designed for eight regions of the rDNA repeat; promoter, intergenic spacer 4 (IGS4), 18S, 5.8S, 28S, terminator, IGS1, and 5′externally transcribed spacer (ETS). […] Signal were quantified using internal standards and specific signals were calculated as a difference between the signals from the specific antibody and from the negative control (an appropriate IgG). Results were expressed as the amount relative to input chromatin and normalized to control IgG levels, with the standard deviations calculated from three independent ChIP experiments. […]

[8] = system: Pol-I specific transcription (human rRNA gene promoter); test: In vitro Pol-I specific (promoter-driven) transcription assay, HeLa nuclear extract, S1 nuclease protection; type: biochemical; conditions: 1 µL HeLa nuclear extract, 100 ng plasmid DNA containing rRNA promoter, triplicates
Experimental: as §4, with “Specific Pol I driven transcription reactions were performed as described using 200 ng of supercoiled plasmid DNA or immobilized rDNA promoter.” left out
We tested a range of DNA intercalators and minor/major groove binders for the potential to inhibit Pol-I and determined IC50 for each drug using an in vitro Pol-I specific transcription assay. This assay primarily measures the efficiency of the initial stages of transcription which include preinitiation complex (PIC) formation, first phosphodiester bond synthesis and promoter clearance (see reviews and for a detailed description of the Pol-I transcription cycle). The reactions were supplemented with supercoiled rDNA template and HeLa nuclear extract (NE) and the level of specific transcript was determined by S1 nuclease protection assay as described.

SMILES: Cc1c2oc3c(C)ccc(C(=O)N[C@@H]4C(=O)N[C@H](C(C)C)C(=O)N5CCC[C@H]5C(=O)N(C)CC(=O)N(C)[C@@H](C(C)C)C(=O)O[C@@H]4C)c3nc-2c(C(=O)N[C@@H]2C(=O)N[C@H](C(C)C)C(=O)N3CCC[C@H]3C(=O)N(C)CC(=O)N(C)[C@@H](C(C)C)C(=O)O[C@@H]2C)c(N)c1=O [ActD, Actinomycin D] (I: T[dV]P[Sar][NMeV] / II: T[dV]P[Sar][NMeV]; ester I:1-I:C, II:1-II:C; linker I:N-II:N via Actinocin(9to1))
- effect on mRNA levels of the genes tested [1]: quite significant
- 5EU incorporation (RNA synthesis) ([2]; 3 μM): almost completely abolished
- effect on Pol II/III transcription ([3]; AD1 3 nM ActD, CPT 8 µM, EB 40 µM, CV 20 µM, Pro 2 µM): did not repress
- transcription of Pol-II targets ([3]; high concentration of ActD (AD2, 3 µM)): causes repression of transcription of all Pol-II targets

SMILES: CC[C@@]1(O)C(=O)OCc2c1cc1n(c2=O)Cc2cc3ccccc3nc2-1 [Camptothecin]
- IC50 ([4]; HCT-116, read-out: IC50 (rRNA Synthesis)): 1990 nM
- effect on Pol-I specific transcription [5]: represses Pol-I specific transcription under all conditions

SMILES: Nc1ccc2cc3ccc(N)cc3nc2c1 [Proflavine, proflavine]
- inhibition of Pol-I transcription [6]: about 90%
- IC50 ([4]; HCT-116, p53 null HCT116 cells, triplicates, total RNA analyzed by S1 nuclease protection assay, read-out: IC50 (rRNA Synthesis)): 476 nM
- UBF occupancy [7]: affected
- IC50 [8]: 350 nM
- distribution (nucleolar localization) of nascent RNAs ([2]; EB 40 µM, Pro 2 µM, CX5461 5 µM): affected the distribution of nascent RNAs
- inhibition of all transcription (5EU incorporation), effect of ActD set to be 100% inhibition ([2]; HCT116 p53−/− cells, EB 40 µM, Pro 2 µM, CX5461 5 µM): 48%
